Tests used:
RANTES = biological target: T1, RANTES (Homo sapiens, UniProt P13501); experiment: Micro-array analysis of chemokine binding peptides: RANTES
T1 construct: purchased 300-06
T1 sequence (P13501 24-91): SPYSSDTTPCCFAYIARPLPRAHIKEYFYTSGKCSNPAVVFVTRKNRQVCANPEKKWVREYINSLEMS
In short: (§1)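 Chemokines were printed at 25 and 50 μg/ml (final, in print reagent) on protein microarray slides, blocked, then exposed to recombinant peptide-displaying phage at 10^7 pfu/μl for 1 h at RT. Bound phage was detected with mouse anti-M13 mAb and Cy3 goat anti-mouse IgG; values are relative Cy3 fluorescence.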

SDF1 = experiment: Micro-array analysis of chemokine binding peptides: SDF1 (isoform not given)
Chain of SDF1 (P48061 22-89 limits assumed): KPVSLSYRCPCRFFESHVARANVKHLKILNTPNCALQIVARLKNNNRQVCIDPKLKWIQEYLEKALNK
Protocol: (§2) (1) Printing: Chemokine (CK) solution (in water) was serially diluted with Print Reagent (GenTel BioSurfaces USA) to final concentrations of 50 μg and 25 μg/ml. BSA/BSA-Biotin control solutions (in water) were diluted with Print Reagent to 100 μg/ml. Amplified stock of M13 phage control (M13KEgIII Cloning Vector, New England Biolabs, Cat.No.E8101S) was stored in Tris Buffered Saline (TBS; pH7.5, 4° C.) and diluted with Print Reagent to the working titre (10^8 pfu/μl). An automated spotting robot (16 pin print tool, 0.4 mm head; BioRobotics, UK) was used to print the CK/BSA control/M13 control, 5 repeats per sample (CK 25 μg/ml and 50 μg/ml; BSA 100 μg/ml; M13 20 μl), on PATH Protein Microarray Slides (GenTel, Prod.No. 2-1005/-1025) at […], and 50-70% relative humidity. Printed micro-array slides were stored at Room Temperature (RT) or 4° C. for at least 24 h before use.
(§3) (2) Blocking: Block Buffer (500 μl/partition; PATHblock, GenTel, Prod.No. 2-1014) was applied to the slide for 1 hour at room temp (RT). After removal of Block Buffer, the slide was air dried for 25 minutes;
(§4) (3) Phage Presented Peptide Binding: Amplified recombinant phage stock was stored in TBS and diluted with Wash Buffer to working titer (10^7 pfu/μl). Recombinant phage suspension (300 μl) was applied per partition and incubated at RT for 1 hour with gentle agitation.
(§5) (4) First Washing: The slides were washed twice with Wash Buffer 300 μl/partition).
(5) Primary Antibody (Ab) Labeling: The slides were incubated with the Primary Ab (1 mg/ml diluted ×2500 (Wash Reagent), 300 μl; Mouse Anti-M13 monoclonal Ab; Amersham Biosciences, UK; Product Code 27-9420-01) for 45 minutes at RT.
(6) Second Washing: The slides were washed twice with Wash Buffer (300 μl/partition).
(7) Secondary Ab Labeling: The slides were incubated with Secondary Ab (1.5 mg/ml diluted ×5000 (Wash Reagent), 300 μl; Cy3-conjugated AffiniPure Goat Anti-Mouse IgG; Jackson ImmunoReserch Labs, USA; Product Code 115-165-062).
(8) Third Washing: The slides were washed twice with Wash Buffer (300 μl/partition).
(9) Rinse: the slides were rinsed twice with Rinse Buffer (PATHrinse, GenTel, Prod.No. 2-1018) then dried well.
(10) Scanning: The peptide-bound, labeled slide was scanned (Laser Intensity 80%, Gain 80%, Resolution 10 μm) with a ScanArray Life Scanner (Packard BioChip Technologies, USA).
(§6) (11) Analysis: Quantitative analysis of micro-array was performed by the SpotReader program of Niles Scientific (USA) and presented as Relative Fluorescence (RF) as a function of CK concentration. Micro-array readout (Cy3 fluorescence) was quantified to determine the relative binding affinities of a CBP for the CKs and by inference, the specificity of the CBP for binding to a CK.

[1] = system: Adjuvant-Induced Arthritis (AIA) rats; experiment: Adjuvant Induced Arthritis (AIA) rat model, Clinical Score; assay type: in vivo; details: for most efficacious of the three doses: 2.5 μg, 25 μg and 250 μg IP on days 7-18; for day of maximal anti-inflammatory effect / maximal anti-inflammatory effect: 25 μg IP on days 7-18
Protocol: Peptides were tested in a rat model of AIA for their anti-inflammatory effects.
Disease Induction: AIA was induced in female Lewis rats aged 7-8 weeks by injection of heat-killed Mycobacerioum tuberculosis (Mt strain H37Ra, Difco Laboratories, USA) dispersed in incomplete Freund's adjuvant to a final concentration of 10 mg/ml (100 μl) at the base of the tail on day 0.
Measurement: Clinical Score (CS, 0-4) for each limb based on (a) joint inflammation, (b) redness, (c) deformity.
Efficacy Protocol 1 (5 rats per group). Peptide/control compound was injected intra-peritoneally (IP, 200 μl) on days 7-11 and 14-18.
Rats were sacrificed (CO2 inhalation) on day 43.
Efficacy Protocol 2 (8 rats per group). Group 1: peptide/PBS was injected intra-peritoneally (IP, 200 μl) on days 7-18; Group 2: PBS was injected IP on days 7-18; Group 3: Dexamethasone (Dexa) was injected IP on days 11 (Clinical Score (CS)1) and 13. Rats were sacrificed on day 43.
Combination Efficacy Protocol 1 (8 rats per group). Group 1: peptide injected IP on days 7-18; Group 2: PBS injected IP on days 7-18; Group 3: Dexa injected IP on day 11 (CS 1) and day 13; Group 4: Dexa injected IP on days 11 and 13 then peptide injected on days 14-22; Group 5: Dexa injected IP on days 11 and 13 then PBS injected on days 14-22.
(§7) Combination Efficacy Protocol 2 (8 rats per group). Group 1: peptide injected IP on days 7-18; Group 2: PBS injected IP on days 7-18; Group 3: Dexa injected IP on day 11 (CS 1) and day 13 then PBS on days 14-22; Group 4: PBS injected IP on days 7-10,12,14; Dexa injected on days 11, 13. Peptide injected on days 15-19.
as §7, with “Protocol 3” for “Protocol 2”, “4: peptide” for “4: PBS”
Control Reagents for Adjuvant Induced Arthritis: Anti-Inflammatory Control: Dexamethasone Sodium Phosphate (Dexacort Forte, Teva) was dissolved in Phosphate Buffer Saline (PBS, GIBCO) to a final concentration of 1 mg/ml and injected in 200 μl (200 μg).
Negative Control: Phosphate Buffer Saline (PBS).

Mig = biological target: T2, Mig (Homo sapiens, UniProt Q07325); experiment: Micro-array analysis of chemokine binding peptides: Mig
T2 construct: purchased 300-26
T2 sequence (Q07325 23-125): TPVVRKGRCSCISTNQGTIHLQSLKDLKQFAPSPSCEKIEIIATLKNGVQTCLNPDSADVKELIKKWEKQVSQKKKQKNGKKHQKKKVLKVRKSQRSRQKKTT
In short: as §1

C-TAC = biological target: T3, C-TAC (Homo sapiens, UniProt Q9Y4X3); experiment: Micro-array analysis of chemokine binding peptides: C-TAC
T3 construct: purchased 300-54
T3 sequence (Q9Y4X3 25-112): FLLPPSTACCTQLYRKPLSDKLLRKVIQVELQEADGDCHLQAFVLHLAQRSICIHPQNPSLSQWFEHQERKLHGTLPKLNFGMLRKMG
Protocol: as §2, §3, §4, §5
(5) Primary Antibody (Ab) Labeling: The slides were incubated with the Primary Ab (1 mg/ml diluted ×2500 (Wash Reagent), 300 μl; Mouse Anti-M13 monoclonal Ab; Amersham Biosciences, UK; Product Code 27-9420-01) for 45 minutes at RT. […]
as §6

[2] = limit = start of the upper 75% of that peptide's response range

WVFGNAMCK [P8]
binding to RANTES, stated in words (RANTES): bound specifically and differentially
binding to SDF1 (isoform not given), stated in words (SDF1): bound specifically and differentially
most efficacious of the three doses [1]: 25 µg
day of maximal anti-inflammatory effect [1]: ~17 days
maximal anti-inflammatory effect [1]: 17%

DYDYGAPC [Ph-p30]
binding to Mig with relatively high affinity (Relative Fluorescence Units) (Mig; [2]): > 15,000 RFU
binding to RANTES with relatively high affinity (Relative Fluorescence Units) (RANTES; [2]): > 15,000 RFU
binding to C-TAC, stated in words (C-TAC): bound

WVFGAAMCK [Ph-p8.8]
binding to Mig, stated in words (Mig): bound
binding to C-TAC, stated in words (C-TAC): bound
binding to SDF1 (isoform not given), stated in words (SDF1): bound specifically and differentially
most efficacious of the three doses [1]: 25 µg
day of maximal anti-inflammatory effect [1]: 18 days
maximal anti-inflammatory effect [1]: 20%
